As usually defined, the DC50 is the concentration at which degradation of the target reaches its halfway point. One may read the Dmax as the largest share of the target that was removed. A low value points to a partial loss of target.

Where only a bound is given, the exact number is not on record here.

This note sets out measurements from patent US12624044B2, “SMARCA degraders and uses thereof” (Kymera Therapeutics, Inc., priority 2019, dated 2026).

The target in the assay is SMARCA2 (Homo sapiens, UniProt P51531). As to the kind of experiment: MSD SMARCA2 degradation in NCI-H1299 cell line (24 h). It counts as cell-based. The conditions noted are these: for DC50: NCI-H1299 cells, read-out: SMARCA2 MSD H1299 degradation 24 h: External Abs-DC50. On the set-up: HC: NCI-H1299 cells treated with DMSO; host or cells: NCI-H1299. How it is done:
Example 32. MSD SMARCA2 Degradation in […] Cell Line
Cell Culture: Cells were cultured in exponential growth phase.
Compound Preparation and Treatment: NCI-H1299 cells were seeded into the 96-well plate at 4.0*10^4 cells per 100 ul per well. Incubate the plate in the incubator overnight. The next day, compounds were diluted to designed stock concentration by TECAN, then perform a 3 fold, 9-point dilution via transferring 15 uL compound into 30 μL DMSO using Apricot. 200 nL diluted compound from compound source plate were transferred into the 96-intermediate plate as designated by using Echo550, followed with 100 ul culture medium to make the 2× compound solution. Cell plate were changed with 80 ul of fresh culture medium and 80 ul of 2× compound solution was added into the well to achieve the final designed concentration. Cell plate was then shaken at 720 rpm for 5 min and incubated for 24 hours in the incubator.
Sample Preparation: Media was aspirated from the cultures and the plate was washed with PBS twice. 60 ul of pre-chilled PIPA lysis buffer (Boston BioProducts BP-115D) with protease inhibitor were directly added into the well to lyze the cells for 20 minutes at 4° C. Cell lysates were collected.
MSD Procedure: The MSD plate was coated with 40 ul cell lysate and incubated at 4° C. overnight. The next day, the MSD coated bare plate was washed 3 times with 150 ul 1×TBST per well, blocked with 150 ul of blocking buffer per well, and shaken for 1 hour at RT, 600 rpm. Blocking buffer was 3% Blocker A in TBST. MSD plate was then washed 3 times with 150 ul 1×TBST per well and Primary Detection antibody (Rabbit anti-SMARCA2/BRM antibody, 100 μg/ml, ab223735) was added to a final [conc.]: 0.3 ug/ml, 25 ul/well and shaken for 1 hour at RT, 600 rpm. Antibody was prepared in Antibody Detection buffer (1% Blocker A in 1×TBST). The MSD plate was then washed 3 times with 150 ul 1×TBST per well. Secondary Detection antibody (SULFO-TAG anti-species antibody) was then added to a final [conc.]: 1 ug/ml, 25 ul/well, and shaken for 1 hour at RT, 600 rpm. Antibodies were prepared in Antibody Detection buffer (1% Blocker A in 1×TBST). MSD plate was washed 3 times with 150 ul 1×TBST per well and 2×MSD reading buffer was added, 150 ul per well, and diluted from 4× with water. MSD instrument was then read.
Data Analysis: The percentage of relative level of SMARCA2 level was calculated following equation below.
LC: A2780, SMARCA2 negative cells. HC: NCI-H1299 cells treated with DMSO.
The letter codes for the percentage of SMARCA2 degradation after 24 hours (Dmax %) include: A (>90% degradation), B (>70-90 degradation), C (50-70 degradation), and D (<50% degradation).

Sequence of SMARCA2 (P51531 whole entry): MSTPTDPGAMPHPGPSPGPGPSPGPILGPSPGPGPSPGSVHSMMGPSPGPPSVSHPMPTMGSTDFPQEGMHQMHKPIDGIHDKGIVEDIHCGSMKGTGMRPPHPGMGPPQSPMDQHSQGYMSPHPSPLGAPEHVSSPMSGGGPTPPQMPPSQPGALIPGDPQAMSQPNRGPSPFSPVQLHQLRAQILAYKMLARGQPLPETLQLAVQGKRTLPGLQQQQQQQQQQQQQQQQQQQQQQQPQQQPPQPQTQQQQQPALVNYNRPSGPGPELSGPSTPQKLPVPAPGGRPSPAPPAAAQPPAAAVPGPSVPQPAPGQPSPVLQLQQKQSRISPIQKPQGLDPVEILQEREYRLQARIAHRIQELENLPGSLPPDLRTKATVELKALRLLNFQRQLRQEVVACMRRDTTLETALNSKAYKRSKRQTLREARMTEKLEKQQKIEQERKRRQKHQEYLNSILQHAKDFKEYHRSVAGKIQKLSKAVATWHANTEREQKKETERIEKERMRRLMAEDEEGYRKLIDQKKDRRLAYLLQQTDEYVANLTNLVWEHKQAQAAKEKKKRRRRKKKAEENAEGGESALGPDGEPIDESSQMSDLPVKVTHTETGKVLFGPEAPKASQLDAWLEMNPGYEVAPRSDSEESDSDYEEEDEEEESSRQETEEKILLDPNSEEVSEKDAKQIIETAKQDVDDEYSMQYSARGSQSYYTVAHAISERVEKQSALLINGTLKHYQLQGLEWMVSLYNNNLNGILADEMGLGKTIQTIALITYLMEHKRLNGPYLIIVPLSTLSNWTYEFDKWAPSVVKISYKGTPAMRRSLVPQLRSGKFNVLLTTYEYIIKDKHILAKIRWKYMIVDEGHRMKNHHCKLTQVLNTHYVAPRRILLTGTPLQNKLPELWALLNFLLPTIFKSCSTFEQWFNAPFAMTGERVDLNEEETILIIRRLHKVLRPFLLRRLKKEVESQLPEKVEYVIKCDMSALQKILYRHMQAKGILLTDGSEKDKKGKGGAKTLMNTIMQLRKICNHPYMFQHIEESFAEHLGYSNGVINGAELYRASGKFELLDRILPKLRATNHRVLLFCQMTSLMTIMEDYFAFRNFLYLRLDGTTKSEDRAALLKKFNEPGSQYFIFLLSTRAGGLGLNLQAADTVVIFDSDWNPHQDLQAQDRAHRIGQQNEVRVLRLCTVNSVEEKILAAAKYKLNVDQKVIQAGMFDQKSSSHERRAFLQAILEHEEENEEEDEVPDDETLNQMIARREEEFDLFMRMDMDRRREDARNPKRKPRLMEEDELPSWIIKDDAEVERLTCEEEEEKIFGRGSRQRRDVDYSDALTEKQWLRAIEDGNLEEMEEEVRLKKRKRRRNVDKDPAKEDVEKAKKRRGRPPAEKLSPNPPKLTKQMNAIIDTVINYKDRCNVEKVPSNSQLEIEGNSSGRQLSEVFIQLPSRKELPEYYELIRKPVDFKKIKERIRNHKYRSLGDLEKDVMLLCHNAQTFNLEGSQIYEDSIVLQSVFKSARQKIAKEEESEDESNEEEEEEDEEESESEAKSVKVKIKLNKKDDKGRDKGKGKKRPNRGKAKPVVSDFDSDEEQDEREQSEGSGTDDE

For the compound `O=C(CCCCCCCCOc1ccc(N2C[C@H]3C[C@@H]2CN3/C=C/C(=O)c2ccccc2O)nc1)NCCOCCOCCOCCNc1cccc2c1C(=O)N(C1CCC(=O)NC1=O)C2=O` (some centres unmarked) [I-1], the 50% degradation concentration (DC50) was > 1000 nM.
In the case of `O=C(CCCCCCCCOc1ccc(N2C[C@H]3C[C@@H]2CN3/C=C/C(=O)c2ccccc2O)nc1)NCCOCCOCCOCCOCCNc1cccc2c1C(=O)N(C1CCC(=O)NC1=O)C2=O` (some centres unmarked) [I-2], the DC50 is > 1000 nM.
As to `O=C(CCCCCCCCOc1ccc(N2C[C@H]3C[C@@H]2CN3/C=C/C(=O)c2ccccc2O)nc1)NCCOCCOCCOCCOCCOCCNc1cccc2c1C(=O)N(C1CCC(=O)NC1=O)C2=O` (some centres unmarked) [I-3], the DC50 was > 1000 nM.
The same measure, in the same setting: for `Cn1c(=O)n(C2CCC(=O)NC2=O)c2ccc(CCCOCCOCCOCCNC(=O)CCCCCCCCOc3ccc(N4C[C@H]5C[C@@H]4CN5/C=C/C(=O)c4ccccc4O)nc3)cc21` (some centres unmarked) [I-4] the value was > 1000 nM; for `Cn1c(=O)n(C2CCC(=O)NC2=O)c2ccc(CCCOCCOCCOCCOCCNC(=O)CCCCCCCCOc3ccc(N4C[C@H]5C[C@@H]4CN5/C=C/C(=O)c4ccccc4O)nc3)cc21` (some centres unmarked) [I-5], > 1000 nM.
On the same count and under the same terms, for `Cn1c(=O)n(C2CCC(=O)NC2=O)c2ccc(CCCOCCOCCOCCOCCOCCNC(=O)CCCCCCCCOc3ccc(N4C[C@H]5C[C@@H]4CN5/C=C/C(=O)c4ccccc4O)nc3)cc21` (some centres unmarked) [I-6] the value was > 1000 nM; for `O=C(CCCCCCCCOc1ccc(N2C[C@H]3C[C@@H]2CN3/C=C/C(=O)c2ccccc2O)nc1)NCCOCCOCCNc1cccc2c1C(=O)N(C1CCC(=O)NC1=O)C2=O` (some centres unmarked) [I-7], > 1000 nM; for `Cn1c(=O)n(C2CCC(=O)NC2=O)c2ccc(CCCOCCOCCNC(=O)CCCCCCCCOc3ccc(N4C[C@H]5C[C@@H]4CN5/C=C/C(=O)c4ccccc4O)nc3)cc21` (some centres unmarked) [I-8], > 1000 nM.
Take `CC(c1ccc(C(=O)NCCOCCOCCOCCNc2cccc3c2C(=O)N(C2CCC(=O)NC2=O)C3=O)cc1)n1cc(-c2cc(-c3ccccc3O)nnc2N)cn1` (centres unmarked) [I-9]: the DC50 is > 1000 nM.
Consider `CC(c1ccc(C(=O)NCCOCCOCCOCCOCCNc2cccc3c2C(=O)N(C2CCC(=O)NC2=O)C3=O)cc1)n1cc(-c2cc(-c3ccccc3O)nnc2N)cn1` (centres unmarked) [I-10], for which the DC50 was > 1000 nM.
The same measure, in the same setting: to `CC(c1ccc(C(=O)NCCOCCOCCOCCOCCOCCNc2cccc3c2C(=O)N(C2CCC(=O)NC2=O)C3=O)cc1)n1cc(-c2cc(-c3ccccc3O)nnc2N)cn1` (centres unmarked) [I-11] belongs > 1000 nM.
On to `CC(c1ccc(C(=O)NCCOCCOCCOCCCc2ccc3c(c2)n(C)c(=O)n3C2CCC(=O)NC2=O)cc1)n1cc(-c2cc(-c3ccccc3O)nnc2N)cn1` (centres unmarked) [I-12], for which the DC50 was > 1000 nM.
Same read-out and setting: to `CC(c1ccc(C(=O)NCCOCCOCCOCCOCCCc2ccc3c(c2)n(C)c(=O)n3C2CCC(=O)NC2=O)cc1)n1cc(-c2cc(-c3ccccc3O)nnc2N)cn1` (centres unmarked) [I-13] belongs > 1000 nM.
On to `CC(c1ccc(C(=O)NCCOCCOCCOCCOCCOCCCc2ccc3c(c2)n(C)c(=O)n3C2CCC(=O)NC2=O)cc1)n1cc(-c2cc(-c3ccccc3O)nnc2N)cn1` (centres unmarked) [I-14], for which the DC50 was > 1000 nM.
In the case of `CC(c1ccc(C(=O)NCCOCCOCCNc2cccc3c2C(=O)N(C2CCC(=O)NC2=O)C3=O)cc1)n1cc(-c2cc(-c3ccccc3O)nnc2N)cn1` (centres unmarked) [I-15], the DC50 is > 1000 nM.
For `CC(c1ccc(C(=O)NCCOCCOCCCc2ccc3c(c2)n(C)c(=O)n3C2CCC(=O)NC2=O)cc1)n1cc(-c2cc(-c3ccccc3O)nnc2N)cn1` (centres unmarked) [I-16], the 50% degradation concentration (DC50) is > 1000 nM.
As for `O=C(CCCCCCCCOc1ccnc(N2C[C@H]3C[C@@H]2CN3/C=C/C(=O)c2ccccc2O)c1)NCCOCCOCCOCCNc1cccc2c1C(=O)N(C1CCC(=O)NC1=O)C2=O` (some centres unmarked) [I-17], the 50% degradation concentration (DC50) is > 1000 nM.
For the compound `O=C(CCCCCCCCOc1ccnc(N2C[C@H]3C[C@@H]2CN3/C=C/C(=O)c2ccccc2O)c1)NCCOCCOCCOCCOCCNc1cccc2c1C(=O)N(C1CCC(=O)NC1=O)C2=O` (some centres unmarked) [I-18], the DC50 is > 1000 nM.
Still for that read-out and setting: for `O=C(CCCCCCCCOc1ccnc(N2C[C@H]3C[C@@H]2CN3/C=C/C(=O)c2ccccc2O)c1)NCCOCCOCCOCCOCCOCCNc1cccc2c1C(=O)N(C1CCC(=O)NC1=O)C2=O` (some centres unmarked) [I-19] the value was > 1000 nM; for `Cn1c(=O)n(C2CCC(=O)NC2=O)c2ccc(CCCOCCOCCOCCNC(=O)CCCCCCCCOc3ccnc(N4C[C@H]5C[C@@H]4CN5/C=C/C(=O)c4ccccc4O)c3)cc21` (some centres unmarked) [I-20], > 1000 nM; for `Cn1c(=O)n(C2CCC(=O)NC2=O)c2ccc(CCCOCCOCCOCCOCCNC(=O)CCCCCCCCOc3ccnc(N4C[C@H]5C[C@@H]4CN5/C=C/C(=O)c4ccccc4O)c3)cc21` (some centres unmarked) [I-21], > 1000 nM.
With `Cn1c(=O)n(C2CCC(=O)NC2=O)c2ccc(CCCOCCOCCOCCOCCOCCNC(=O)CCCCCCCCOc3ccnc(N4C[C@H]5C[C@@H]4CN5/C=C/C(=O)c4ccccc4O)c3)cc21` (some centres unmarked) [I-22], the DC50 was > 1000 nM.
As for `O=C(CCCCCCCCOc1ccnc(N2C[C@H]3C[C@@H]2CN3/C=C/C(=O)c2ccccc2O)c1)NCCOCCOCCNc1cccc2c1C(=O)N(C1CCC(=O)NC1=O)C2=O` (some centres unmarked) [I-23], the DC50 is > 1000 nM.
On to `Cn1c(=O)n(C2CCC(=O)NC2=O)c2ccc(CCCOCCOCCNC(=O)CCCCCCCCOc3ccnc(N4C[C@H]5C[C@@H]4CN5/C=C/C(=O)c4ccccc4O)c3)cc21` (some centres unmarked) [I-24], for which the DC50 is > 1000 nM.
As to `Cn1c(=O)n(C2CCC(=O)NC2=O)c2ccc(CCCOCCOCCNC(=O)CCCOc3cccc(N4C[C@H]5C[C@@H]4CN5/C=C/C(=O)c4ccccc4O)n3)cc21` (some centres unmarked) [I-25], the half-maximal degradation concentration (DC50) is > 1000 nM.
As for `Cn1c(=O)n(C2CCC(=O)NC2=O)c2ccc(CCCOCCOCCOCCNC(=O)CCCOc3cccc(N4C[C@H]5C[C@@H]4CN5/C=C/C(=O)c4ccccc4O)n3)cc21` (some centres unmarked) [I-26], the half-maximal degradation concentration (DC50) is > 1000 nM.
Same read-out and setting: for `Cn1c(=O)n(C2CCC(=O)NC2=O)c2ccc(CNCc3cn(Cc4cccc(N5C[C@H]6C[C@@H]5CN6/C=C/C(=O)c5ccccc5O)n4)nn3)cc21` (some centres unmarked) [I-27] the value was > 1000 nM.
As to `Cn1c(=O)n(C2CCC(=O)NC2=O)c2cccc(CCCNCc3cn(Cc4cccc(N5C[C@H]6C[C@@H]5CN6/C=C/C(=O)c5ccccc5O)n4)nn3)c21` (some centres unmarked) [I-28], the DC50 was > 1000 nM. For the same compound, where the note is “NCI-H1299, NCI-H1299 cells”, the Dmax was < 50%.
Take `Cn1c(=O)n(C2CCC(=O)NC2=O)c2ccc(CCCNCc3cn(Cc4cccc(N5C[C@H]6C[C@@H]5CN6/C=C/C(=O)c5ccccc5O)n4)nn3)cc21` (some centres unmarked) [I-29]: the DC50 is > 1000 nM.
For `Cn1c(=O)n(C2CCC(=O)NC2=O)c2cccc(CCCOCCOc3cccc(N4C[C@H]5C[C@@H]4CN5/C=C/C(=O)c4ccccc4O)n3)c21` (some centres unmarked) [I-30], the DC50 was > 1000 nM.
For the compound `Cn1c(=O)n(C2CCC(=O)NC2=O)c2ccc(CCCOCCOc3cccc(N4C[C@H]5C[C@@H]4CN5/C=C/C(=O)c4ccccc4O)n3)cc21` (stereo partly drawn) [I-31, 3-[5-[3-[2-[[6-[(1R,4R)-5-[(E)-3-(2-hydroxyphenyl)-3-oxo-prop-1-enyl]-2,5-diazabicyclo[2.2.1]heptan-2-yl]-2-pyridyl]oxy]ethoxy]propyl]-3-methyl-2-oxo-benzimidazol-1-yl]piperidine-2,6-dione], the DC50 was > 1000 nM.
Turning to `Cn1c(=O)n(C2CCC(=O)NC2=O)c2cccc(CCCOCCOCCOc3cccc(N4C[C@H]5C[C@@H]4CN5/C=C/C(=O)c4ccccc4O)n3)c21` (some centres unmarked) [I-32], the DC50 is > 1000 nM.
On the same count and under the same terms, to `Cn1c(=O)n(C2CCC(=O)NC2=O)c2ccc(CCCOCCOCCOc3cccc(N4C[C@H]5C[C@@H]4CN5/C=C/C(=O)c4ccccc4O)n3)cc21` (some centres unmarked) [I-33] belongs > 1000 nM; to `O=C1CCC(N2C(=O)c3cccc(OCc4cn(Cc5cccc(N6C[C@H]7C[C@@H]6CN7/C=C/C(=O)c6ccccc6O)n5)nn4)c3C2=O)C(=O)N1` (some centres unmarked) [I-34], > 1000 nM.
